{
  "source": "patent US20080057529A1",
  "about": "“Method for Identifying Histone Deacetylase Inhibitors” (priority 2003, published 2008)",
  "format_in_all_cases": "cell-based, human",
  "key": {"p21 minimal promoter": {"test_system": "p21 minimal promoter", "assay": "Transient transfection of HeLa cells with p21m-SEAP reporter plasmid, SEAP activity", "details": "Apicidin 1 μM", "procedure": "To determine whether the p21 minimal promoter was responsive to HDAC inhibitors, a reporter plasmid containing the secreted alkaline phosphatase gene (SEAP) operably linked to the p21 minimal promoter (−182 through +25), pcDNA3-21m-SEAP, was tested in transient transfection experiments of HeLa cells. […] All data summarized in Tables 4 through 7 were obtained by normalizing the total amount of transfected DNA to 2.1 μg using a promoterless plasmid."}, "CMV promoter": {"test_system": "CMV promoter", "assay": "Luc activity of co-transfected pCMV-Luc control plasmid in HeLa cells", "details": "TSA 300 nM, Apicidin 1 μM; for RLU/mg / Fold Ind. RLU: Table 3; for Fold Ind. RLU: vs DMSO; for RLU norm mean / RLU/μg: Table 5; for RLU/μg: luciferase control plasmid not named"}, "endogenous p21": {"test_system": "endogenous p21", "assay": "Induction of endogenous p21 in HeLa cells, immunoblot", "details": "Homo sapiens, 13 hour treatment, immunoblot densitometry, read-out: Endogenous p2 EC50", "procedure": "Induction of endogenous p21 and acetylation of core histones (inhibition of HDAC activity) was as follows. Dose-response experiments were performed in HeLa cells with different classes of known HDAC inhibitors. […] An α-tubulin-specific antibody (Sigma, St. Louis, Mo.; catalog number: T9026) was used as an internal standard. Quantitative data were obtained by densitometric analysis of X-ray films and were normalized for the internal standard values."}, "[1]": {"details": "Table 4, P21m-SEAP 2 μg DNA, vs DMSO"}, "[2]": {"details": "Table 5, TSA 300 nM, P21m-SEAP 0.1 μg DNA, vs DMSO"}, "[3]": {"details": "Table 5, TSA 300 nM, P21m-SEAP 0.2 μg DNA, vs DMSO"}, "[4]": {"details": "Table 5, TSA 300 nM, P21m-SEAP 0.5 μg DNA, vs DMSO"}, "[5]": {"details": "Table 5, TSA 300 nM, P21m-SEAP 1 μg DNA, vs DMSO"}, "[6]": {"details": "Table 5, TSA 300 nM, P21m-SEAP 2 μg DNA, vs DMSO"}},
  "data": [
    {"smiles": "CCC(=O)CCCCC[C@@H]1NC(=O)[C@H]2CCCCN2C(=O)[C@H]([C@@H](C)CC)NC(=O)[C@H](Cc2cn(OC)c3ccccc23)NC1=O", "note": "[Apicidin]", "values": [
      {"measurement": "SEAP (10 min)", "setting": "p21 minimal promoter; Table 4, P21m-SEAP 2 μg DNA (total DNA 2.1 μg)", "result": 795345},
      {"measurement": "SEAP activity normalised to total protein", "setting": "p21 minimal promoter; Table 4, P21m-SEAP 2 μg DNA, SEAP normalised to total protein", "result": 441858.3},
      {"measurement": "Fold Induct. (SEAP norm)", "setting": "p21 minimal promoter; [1]", "result": 15.3076, "unit": "fold"},
      {"measurement": "Fold induct. (SEAP)", "setting": "p21 minimal promoter; [1]", "result": 9.8, "unit": "fold"},
      {"measurement": "SEAP (10 min)", "setting": "p21 minimal promoter; Table 5, TSA 300 nM, P21m-SEAP 0 μg DNA (total DNA 2.1 μg)", "result": 2133},
      {"measurement": "SEAP (fold ind)", "setting": "p21 minimal promoter; Table 5, TSA 300 nM, P21m-SEAP 0 μg DNA, vs DMSO", "result": 1.8, "unit": "fold"},
      {"measurement": "SEAP norm-bckg/RLU norm", "setting": "p21 minimal promoter; Table 5, TSA 300 nM, P21m-SEAP 0.1 μg DNA", "result": "4,740.65"},
      {"measurement": "SEAP (10 min)", "setting": "p21 minimal promoter; Table 5, TSA 300 nM, P21m-SEAP 0.1 μg DNA (total DNA 2.1 μg)", "result": 5661},
      {"measurement": "SEAP (fold ind)", "setting": "p21 minimal promoter; [2]", "result": 3.3, "unit": "fold"},
      {"measurement": "SEAP norm.-bckg/RLU norm (fold ind)", "setting": "p21 minimal promoter; [2]", "result": 10.7, "unit": "fold"},
      {"measurement": "SEAP norm-bckg/RLU norm", "setting": "p21 minimal promoter; Table 5, TSA 300 nM, P21m-SEAP 0.2 μg DNA", "result": "10,064.04"},
      {"measurement": "SEAP (10 min)", "setting": "p21 minimal promoter; Table 5, TSA 300 nM, P21m-SEAP 0.2 μg DNA (total DNA 2.1 μg)", "result": 10279},
      {"measurement": "SEAP (fold ind)", "setting": "p21 minimal promoter; [3]", "result": 3.75, "unit": "fold"},
      {"measurement": "SEAP norm.-bckg/RLU norm (fold ind)", "setting": "p21 minimal promoter; [3]", "result": 16.4, "unit": "fold"},
      {"measurement": "SEAP norm-bckg/RLU norm", "setting": "p21 minimal promoter; Table 5, TSA 300 nM, P21m-SEAP 0.5 μg DNA", "result": "24,280.99"},
      {"measurement": "SEAP (10 min)", "setting": "p21 minimal promoter; Table 5, TSA 300 nM, P21m-SEAP 0.5 μg DNA (total DNA 2.1 μg)", "result": 16014},
      {"measurement": "SEAP (fold ind)", "setting": "p21 minimal promoter; [4]", "result": 6.25, "unit": "fold"},
      {"measurement": "SEAP norm.-bckg/RLU norm (fold ind)", "setting": "p21 minimal promoter; [4]", "result": 17.9, "unit": "fold"},
      {"measurement": "SEAP norm-bckg/RLU norm", "setting": "p21 minimal promoter; Table 5, TSA 300 nM, P21m-SEAP 1 μg DNA", "result": "68,122.56"},
      {"measurement": "SEAP (10 min)", "setting": "p21 minimal promoter; Table 5, TSA 300 nM, P21m-SEAP 1 μg DNA (total DNA 2.1 μg)", "result": 48928},
      {"measurement": "SEAP (fold ind)", "setting": "p21 minimal promoter; [5]", "result": 6.8, "unit": "fold"},
      {"measurement": "SEAP norm.-bckg/RLU norm (fold ind)", "setting": "p21 minimal promoter; [5]", "result": 16.9, "unit": "fold"},
      {"measurement": "SEAP norm-bckg/RLU norm", "setting": "p21 minimal promoter; Table 5, TSA 300 nM, P21m-SEAP 2 μg DNA", "result": "219,589.86"},
      {"measurement": "SEAP (10 min)", "setting": "p21 minimal promoter; Table 5, TSA 300 nM, P21m-SEAP 2 μg DNA (total DNA 2.1 μg)", "result": 108562},
      {"measurement": "SEAP (fold ind)", "setting": "p21 minimal promoter; [6]", "result": 4.5, "unit": "fold"},
      {"measurement": "SEAP norm.-bckg/RLU norm (fold ind)", "setting": "p21 minimal promoter; [6]", "result": 17.3, "unit": "fold"},
      {"measurement": "RLU/mg", "setting": "CMV promoter; 2 μg p21m-BLA + 0.1 μg pCMV-Luc, 6 hr treatment", "result": 79723, "unit": "RLU/mg"},
      {"measurement": "Fold Ind. RLU", "setting": "CMV promoter; 2 μg p21m-BLA + 0.1 μg pCMV-Luc, 6 hr", "result": 3.6, "unit": "fold"},
      {"measurement": "RLU/mg", "setting": "CMV promoter; 2 μg p21m-BLA + 0.1 μg pCMV-Luc, 12 hr treatment", "result": 183519, "unit": "RLU/mg"},
      {"measurement": "Fold Ind. RLU", "setting": "CMV promoter; 2 μg p21m-BLA + 0.1 μg pCMV-Luc, 12 hr", "result": 2.45, "unit": "fold"},
      {"measurement": "RLU/mg", "setting": "CMV promoter; 2 μg p21m-BLA + 0.1 μg pCMV-Luc, 24 hr treatment", "result": 131733, "unit": "RLU/mg"},
      {"measurement": "Fold Ind. RLU", "setting": "CMV promoter; 2 μg p21m-BLA + 0.1 μg pCMV-Luc, 24 hr", "result": 2.9, "unit": "fold"},
      {"measurement": "RLU/mg", "setting": "CMV promoter; 2 μg pCMV-BLA + 0.1 μg pCMV-Luc, 6 hr treatment", "result": 10937, "unit": "RLU/mg"},
      {"measurement": "Fold Ind. RLU", "setting": "CMV promoter; 2 μg pCMV-BLA + 0.1 μg pCMV-Luc, 6 hr", "result": 2, "unit": "fold"},
      {"measurement": "RLU/mg", "setting": "CMV promoter; 2 μg pCMV-BLA + 0.1 μg pCMV-Luc, 12 hr treatment", "result": 39603.5, "unit": "RLU/mg"},
      {"measurement": "Fold Ind. RLU", "setting": "CMV promoter; 2 μg pCMV-BLA + 0.1 μg pCMV-Luc, 12 hr", "result": 3.6, "unit": "fold"},
      {"measurement": "RLU/mg", "setting": "CMV promoter; 2 μg pCMV-BLA + 0.1 μg pCMV-Luc, 24 hr treatment", "result": 18932.5, "unit": "RLU/mg"},
      {"measurement": "Fold Ind. RLU", "setting": "CMV promoter; 2 μg pCMV-BLA + 0.1 μg pCMV-Luc, 24 hr", "result": 5.3, "unit": "fold"},
      {"measurement": "RLU norm mean", "setting": "CMV promoter; P21m-SEAP 0 μg DNA", "result": 1.08},
      {"measurement": "RLU/μg", "setting": "CMV promoter; P21m-SEAP 0 μg DNA", "result": "102,236.00 RLU/μg"},
      {"measurement": "RLU norm mean", "setting": "CMV promoter; P21m-SEAP 0.1 μg DNA", "result": 1.17},
      {"measurement": "RLU/μg", "setting": "CMV promoter; P21m-SEAP 0.1 μg DNA", "result": "111,192.67 RLU/μg"},
      {"measurement": "RLU norm mean", "setting": "CMV promoter; P21m-SEAP 0.2 μg DNA", "result": 1.14},
      {"measurement": "RLU/μg", "setting": "CMV promoter; P21m-SEAP 0.2 μg DNA", "result": "108,052.99 RLU/μg"},
      {"measurement": "RLU norm mean", "setting": "CMV promoter; P21m-SEAP 0.5 μg DNA", "result": 0.57},
      {"measurement": "RLU/μg", "setting": "CMV promoter; P21m-SEAP 0.5 μg DNA", "result": "54,363.72 RLU/μg"},
      {"measurement": "RLU norm mean", "setting": "CMV promoter; P21m-SEAP 1 μg DNA", "result": 1.14},
      {"measurement": "RLU/μg", "setting": "CMV promoter; P21m-SEAP 1 μg DNA", "result": "108,153.75 RLU/μg"},
      {"measurement": "RLU norm mean", "setting": "CMV promoter; P21m-SEAP 2 μg DNA", "result": 0.90},
      {"measurement": "RLU/μg", "setting": "CMV promoter; P21m-SEAP 2 μg DNA", "result": "85,172.59 RLU/μg"},
      {"measurement": "EC50", "setting": "endogenous p21", "result": 70, "unit": "nM"}
    ]}
  ]
}
